Results: US11213567B2, “ZAG-derived peptide and use thereof” (L&C Bio Co., LTD., priority 2017, dated 2022)

Assays:
IL-6 = assay: Atopic dermatitis efficacy test using macrophages (RAW 264.7): IL-6 released after LPS, ELISA; type: cell-based, mouse; design: key to RAW 264.7 (mouse) IL-6: •: have statistical significance, determining as effective, compared with the positive control; details: for RAW 264.7 (mouse) IL-6: 1 μg/mL for 24 hours, then LPS 0.1 μg/mL 24 hours; for IL-6 concentration released in cell culture medium: Example 2-1, FIG. 2A, RAW 264.7, 1 μg/mL 24 hours, LPS 0.1 μg/mL 24 hours, compared with positive control (Pos)
Method: (§1) To select an amino acid sequence corresponding to a key active site of ZAG having efficacy in the alleviation of atopic symptoms from 18 peptide candidate groups, an atopic dermatitis efficacy test was performed. Five types of immune-related cells were treated with ZAG peptide candidate groups (Z1-Z18, SEQ ID NOs: 1 to 18, respectively) and the ZAG protein (Z0, SEQ ID NOs: 19) at a concentration of 1 μg/mL for 24 hours, and then treated with a stimulator suitable for each cell line for the listed time to confirm an immune response. The experiment was performed with a group treated with only a stimulator as a positive control experimental group, and a group treated with only a vehicle without a stimulator as a negative control experimental group (Table 2: Efficacy test method for atopic dermatitis). An inflammatory response-related enzyme used as a stimulator is produced by immune cells, and histamine initiates an inflammatory response. The immune cells migrating to a damaged region release cytokines such as tumor necrosis factor-α (TNF-α) and interleukin-6 (IL-6) to directly lyse foreign invasive substances or collect other immune cells to initiate an inflammatory response. An efficacy test using inflammation-inducing materials, interferon-γ and skin inflammation-related factor CCL-17/thymus- and activation-regulated chemokine (TARC) was also performed to confirm an immune response.
Macrophages (RAW 264.7 cells) were treated with a stimulator LPS at a concentration of 0.1 μg/mL for 24 hours, and then the concentration of IL-6 released in a cell culture medium was confirmed by ELISA assay.
(§2) Various types of immune cells were treated with each of Z20mer-1, Z20mer-2, Z20mer-3, Z15mer-1, Z15mer-2, Z15mer-3 and Z15mer-4 at a concentration of 1 μg/mL for 24 hours, and then treated with a stimulator suitable for each cell line for the listed time to confirm an immune response. The atopic dermatitis efficacy test method was performed by the same method as described in Example 1 and Table 2.
(§3) The experiment was performed with experimental groups: 1) negative control: vehicle-treated group (Neg), 2) positive control: a group treated with only a stimulator (Pos), and 3) experimental group: groups treated with a stimulator and ZAG3 or a ZAG3-derived oligopeptide (Z20mer-1, Z20mer-2, Z20mer-3, Z15mer-1, Z15mer-2, Z15mer-3 or Z15mer-4). Concentrations were measured from cell culture by ELISA.
Macrophages (RAW 264.7 cells) were treated with a stimulator LPS at a concentration of 0.1 μg/mL for 24 hours, and then a concentration of IL-6 released in a cell culture medium was confirmed by ELISA assay.

Histamine = assay: Atopic dermatitis efficacy test using mast cells (RBL-2H3): histamine released after PMA and A23187, ELISA; type: cell-based, rat; design: key: •: have statistical significance, determining as effective, compared with the positive control; details: 1 μg/mL for 24 hours, then PMA 1 μg/mL, A23187 1 μg/mL 12 hours
Method: as §1
Mast cells (RBL-2H3) were treated with 1 μg/mL of PMA and 1 μg/mL of A23187 as stimulators for 12 hours, and a concentration of histamine released in a cell culture medium was confirmed by ELISA assay.
as §2, §3
Mast cells (RBL-2H3) were treated with 1 μg/mL of PMA and 1 μg/mL of A23187 as simulators for 12 hours, and then a concentration of histamine released in a cell culture medium was confirmed by ELISA assay. As compared with the positive control (Pos), in all of the oligopeptide-treated groups, the histamine release was reduced (FIG. 2B).

CCL17/TARC = assay: Atopic dermatitis efficacy test using keratinocytes (HaCaT): CCL17/TARC released after TNF-α and IFN-γ, ELISA; type: cell-based, human; design: key to HaCaT (human) CCL17/TARC: •: have statistical significance, determining as effective, compared with the positive control; details: for HaCaT (human) CCL17/TARC: 1 μg/mL for 24 hours, then TNF-α 0.4 μg/mL, IFN-γ 0.4 μg/mL 24 hours
Method: as §1
Keratinocytes (HaCaT cells) were treated with 0.4 μg/mL of TNF-α and 0.4 μg/mL of IFN-γ as stimulators for 24 hours, and then a concentration of CCL17/TARC released in a cell culture medium was confirmed by ELISA assay.
as §2, §3

IgE = assay: Atopic dermatitis efficacy test using B lymphocytes (RPMI 1788): IgE released after LPS, ELISA; type: cell-based, human; design: key: •: have statistical significance, determining as effective, compared with the positive control; details: then LPS 0.1 μg/mL 24 hours
Method: as §1
(§4) B lymphocytes (RPMI 1788) were treated with 0.1 μg/mL of LPS as a stimulator for 24 hours, and a concentration of IgE released in a cell culture medium was confirmed by ELISA assay.
as §2, §3
as §4, with “and then” for “and”, “assay. As compared with the positive control (Pos), in all of the oligopeptide-treated groups, IgE was reduced (FIG. 2D).” for “assay.”

IL-4 = assay: Atopic dermatitis efficacy test using T lymphocytes: IL-4 released after IL-2, ELISA; type: cell-based, human; design: key to T lymphocyte (human) IL-4: •: have statistical significance, determining as effective, compared with the positive control; details: for IL-4 concentration released in cell culture medium: Example 1-5, FIG. 1E, IL-2 50 ng/mL 12 hours; for IL-4 concentration released in cell culture medium / IL-4: T lymphocytes, 1 μg/mL 24 hours; for T lymphocyte (human) IL-4: 1 μg/mL for 24 hours, then IL-2 50 ng/mL 12 hours; for IL-4: Example 2-5, FIG. 2E, compared with positive control (Pos)
Method: as §1
An atopic dermatitis efficacy test using T lymphocytes was performed with six peptide candidate groups (Z3, Z4, Z5, Z12, Z14, and Z15), which were determined to have efficacy from the results of Examples 1-1 to 1-4 described above. T lymphocytes were treated with 50 ng/mL of IL-2 as a stimulator for 12 hours, and a concentration of IL-4 released in a cell culture medium was confirmed by ELISA assay.
as §2, §3
An experiment was performed on T lymphocytes using the target peptides selected through the previous experiment. As compared with the positive control (Pos), in all of the oligopeptide-treated groups (Z20mer-1, Z20mer-2, Z20mer-3, Z15mer-1, Z15mer-2, Z15mer-3, and Z15mer-4), IL-4 was reduced (FIG. 2E).

[1] = Table 3, 1 μg/mL for 24 hours, vs stimulator only
[2] = Table 5, 1 μg/mL for 24 hours, vs positive control

Substance | RAW 264.7 (mouse) IL-6 (IL-6; Table 3, vs stimulator only) | RBL-2H3 (rat) Histamine (Histamine; Table 3, vs stimulator only) | HaCaT (human) CCL17/TARC (CCL17/TARC; Table 3, vs stimulator only) | B lymphocyte (human) IgE (IgE; [1]) | also measured
Z1: ZAG protein-derived peptide, SEQ ID NO. 1: QENQDGRYSLTYIYTGLSKHVEDVPAFQAL (ZAG protein-derived peptide) | • | • | • | – | –
Z2: ZAG protein-derived peptide, SEQ ID NO. 2: GSLNDLQFFRYNSKDRKSQPMGLWRQVEGM (ZAG protein-derived peptide) | • | • | • | – | –
Z6: ZAG protein-derived peptide, SEQ ID NO. 6: EPVYVQRAKAYLEEECPATLRKYLKYSKNI (ZAG protein-derived peptide) | • | • | • | • | –
Z7: ZAG protein-derived peptide, SEQ ID NO. 7: LDRQDPPSVVVTSHQAPGEKKKLKCLAYDF (ZAG protein-derived peptide) | • | • | • | • | –
Z8: ZAG protein-derived peptide, SEQ ID NO. 8: YPGKIDVHWTRAGEVQEPELRGDVLHNGNG (ZAG protein-derived peptide) | • | • | • | • | –
Z9: ZAG protein-derived peptide, SEQ ID NO. 9: TYQSWVVVAVPPQDTAPYSCHVQHSSLAQP (listed as Homo sapiens) | • | • | – | – | –
Z10: ZAG protein-derived peptide, SEQ ID NO. 10: GLSKHVEDVPAFQALGSLNDLQFFRYNSKD (ZAG protein-derived peptide) | • | • | • | – | –
Z11: ZAG protein-derived peptide, SEQ ID NO. 11: RKSQPMGLWRQVEGMEDWKQDSQLQKARED (ZAG protein-derived peptide) | – | • | – | – | –
Z12: ZAG protein-derived peptide, SEQ ID NO. 12: PFDPAAQITKQKWEAEPVYVQRAKAYLEEE (ZAG protein-derived peptide) | – | – | • | • | IL-4 concentration released in cell culture medium (IL-4): significantly decreased; T lymphocyte (human) IL-4 (IL-4; Table 3, vs stimulator only): •
Z13: ZAG protein-derived peptide, SEQ ID NO. 13: CPATLRKYLKYSKNILDRQDPPSVVVTSHQ (ZAG protein-derived peptide) | – | – | • | • | –
Z15: ZAG protein-derived peptide, SEQ ID NO. 15: ENNRSSGAFWKYYYDGKDYIEFNKEIPAWV (listed as Homo sapiens) | – | • | – | – | IL-4 concentration released in cell culture medium (IL-4): significantly decreased
Z15mer-1: ZAG3-derived oligopeptide, SEQ ID NO. 23: EDWKQDSQLQKARED (ZAG protein-derived peptide) | – | – | – | – | B lymphocyte (human) IgE (IgE; [2]): •; IL-4 (IL-4): reduced; T lymphocyte (human) IL-4 (IL-4; Table 5, vs positive control): •; IL-6 concentration released in cell culture medium (IL-6): significantly decreased; RAW 264.7 (mouse) IL-6 (IL-6; Table 5, vs positive control): •; RBL-2H3 (rat) Histamine (Histamine; Table 5, vs positive control): •
Z15mer-2: ZAG3-derived oligopeptide, SEQ ID NO. 24: DSQLQKAREDIFMET (ZAG protein-derived peptide) | – | – | – | – | B lymphocyte (human) IgE (IgE; [2]): •; IL-4 (IL-4): reduced; T lymphocyte (human) IL-4 (IL-4; Table 5, vs positive control): •; IL-6 concentration released in cell culture medium (IL-6): significantly decreased; RAW 264.7 (mouse) IL-6 (IL-6; Table 5, vs positive control): •; RBL-2H3 (rat) Histamine (Histamine; Table 5, vs positive control): •
Z16: ZAG protein-derived peptide, SEQ ID NO. 16: APGEKKKLKCLAYDFYPGKIDVHWTRAGEV (ZAG protein-derived peptide) | – | – | – | • | T lymphocyte (human) IL-4 (IL-4; Table 3, vs stimulator only): •
Z17: ZAG protein-derived peptide, SEQ ID NO. 17: QEPELRGDVLHNGNGTYQSWVVVAVPPQDT (ZAG protein-derived peptide) | – | • | – | • | –
Z18: ZAG protein-derived peptide, SEQ ID NO. 18: AVPPQDTAPYSCHVQHSSLAQPLVVPWEAS (ZAG protein-derived peptide) | – | • | • | • | –
Z20mer-1: ZAG3-derived oligopeptide, SEQ ID NO. 20: EDWKQDSQLQKAREDIFMET (ZAG protein-derived peptide) | – | – | – | – | B lymphocyte (human) IgE (IgE; [2]): •; IL-4 (IL-4): reduced; T lymphocyte (human) IL-4 (IL-4; Table 5, vs positive control): •; RBL-2H3 (rat) Histamine (Histamine; Table 5, vs positive control): •; CCL17/TARC concentration released in cell culture medium (CCL17/TARC; Example 2-3, FIG. 2C, HaCaT, 1 μg/mL 24 hours, TNF-α 0.4 μg/mL and IFN-γ 0.4 μg/mL 24 hours, compared with positive control (Pos)): significantly decreased; HaCaT (human) CCL17/TARC (CCL17/TARC; Table 5, vs positive control): •
Z20mer-2: ZAG3-derived oligopeptide, SEQ ID NO. 21: DSQLQKAREDIFMETLKDIV (ZAG protein-derived peptide) | – | – | – | – | B lymphocyte (human) IgE (IgE; [2]): •; IL-4 (IL-4): reduced; T lymphocyte (human) IL-4 (IL-4; Table 5, vs positive control): •; RBL-2H3 (rat) Histamine (Histamine; Table 5, vs positive control): •
Z20mer-3: ZAG3-derived oligopeptide, SEQ ID NO. 22: KAREDIFMETLKDIVEYYND (ZAG protein-derived peptide) | – | – | – | – | B lymphocyte (human) IgE (IgE; [2]): •; IL-4 (IL-4): reduced; T lymphocyte (human) IL-4 (IL-4; Table 5, vs positive control): •; IL-6 concentration released in cell culture medium (IL-6): significantly decreased; RAW 264.7 (mouse) IL-6 (IL-6; Table 5, vs positive control): •; RBL-2H3 (rat) Histamine (Histamine; Table 5, vs positive control): •
